Results: US5087439A, “Paramagnetic metal-diethylenetriamine-pentaacetic acid partial amide complexes for magnetic resonance imaging” (Salutar, Inc., priority 1989, dated 1992)

Tests used:
[1] = Relaxivity (T1, T2) of the compound in human plasma at 10 MHz (37° C.); format: physicochemical; conditions: for T1 Plasma / T2 Plasma: 10 MHz, 37° C.
Protocol: (§1) Relaxivity of the compound in water and in human plasma at 10 MHz (37° C.) (for practical purposes, the lower the T1 in a given part of the body, the brighter the image in MR imaging):
(§2) *T1 and T2 are relaxtion times in msec.

[2] = Relaxivity (T1, T2) of the compound in water at 10 MHz (37° C.); format: physicochemical
Protocol: as §1, §2

[3] = vs prior art compound, same dosage, from blood T1 at 20 minutes
Protocol: Pharmacokinetics of the compound in a pure breed beagle dog
A male dog was injected with the test compounds at 100 μ mol/kg. Blood was drawn at the indicated times. The plasma was separated and the relaxivity measured.

[4] = Organ distribution of the compound in male rabbits (organ T1 measured in vitro at 5 MHz); conditions: 100 μmol/kg; for T1, Skeletal Muscle: male rabbits, 15 min post injection, 5 MHz
Protocol: The test compounds were injected into male rabbits at 100 μmol/kg. The rabbits were sacrificed at 15 minutes post injection and the relaxivity of internal organs was measured in vitro at 5 MHz.
The test compounds were injected into male rabbits at 100 μ mol/kg. The rabbits were sacrificed at 15 minutes post injection and the relaxivity of internal organs was measured in vitro at 5 MHz.

CCCCCCNC(=O)CN(CCN(CCN(CC(=O)[O-])CC(=O)NCCCCCC)CC(=O)[O-])CC(=O)[O-].[Gd+3] [Gd DTPA-bishexylamide]
T1 Plasma ([1]; 1.17 × 10^-3 M): 83 ms | T2 Plasma ([1]; 1.17 × 10^-3 M): 71 ms | T1 Plasma ([1]; 1.46 × 10^-4 M): 403 ms | T1 Plasma ([1]; 1.82 × 10^-5 M): 1087 ms | T1 Plasma ([1]; 2.34 × 10^-3 M): 48 ms | T2 Plasma ([1]; 2.34 × 10^-3 M): 39 ms | T1 Plasma ([1]; 2.92 × 10^-4 M): 249 ms | T1 Plasma ([1]; 3.68 × 10^-5 M): 881 ms | T1 Plasma ([1]; 4.67 × 10^-3 M): 26 ms | T2 Plasma ([1]; 4.67 × 10^-3 M): 21 ms | T1 Plasma ([1]; 5.84 × 10^-4 M): 145 ms | T2 Plasma ([1]; 5.84 × 10^-4 M): 123 ms | T1 Plasma ([1]; 7.30 × 10^-5 M): 622 ms | T1 Plasma ([1]; 9.12 × 10^-6 M): 1220 ms | T1 Plasma ([1]; 9.34 × 10^-3 M): 15 ms | T2 Plasma ([1]; 9.34 × 10^-3 M): 10 ms | proton relaxation in plasma compared with the prior art compound ([1]; vs Gd DTPA-di(N-methylglucamine), human plasma): almost three times better | T1 Water ([2]; 1.17 × 10^-3 M): 159 ms | T2 Water ([2]; 1.17 × 10^-3 M): 147 ms | T1 Water ([2]; 1.46 × 10^-4 M): 947 ms | T1 Water ([2]; 2.34 × 10^-3 M): 81 ms | T2 Water ([2]; 2.34 × 10^-3 M): 76 ms | T1 Water ([2]; 2.92 × 10^-4 M): 561 ms | T1 Water ([2]; 4.67 × 10^-3 M): 42 ms | T2 Water ([2]; 4.67 × 10^-3 M): 36 ms | T1 Water ([2]; 5.84 × 10^-4 M): 309 ms | T1 Water ([2]; 7.30 × 10^-5 M): 1374 ms | T1 Water ([2]; 9.34 × 10^-3 M): 23 ms | T2 Water ([2]; 9.34 × 10^-3 M): 18 ms | improvement in image signal intensity [3]: two-fold | T1, Skeletal Muscle [4]: 397 ms

C[NH2+]C[C@H](O)[C@@H](O)[C@H](O)[C@H](O)CO.C[NH2+]C[C@H](O)[C@@H](O)[C@H](O)[C@H](O)CO.O=C([O-])CN(CCN(CC(=O)[O-])CC(=O)[O-])CCN(CC(=O)[O-])CC(=O)[O-].[Gd+3] [Gd DTPA-di(N-methylglucamine), reference compound]
T1 Plasma ([1]; 1.56 × 10^-3 M): 134 ms | T2 Plasma ([1]; 1.56 × 10^-3 M): 116 ms | T1 Plasma ([1]; 1.95 × 10^-4 M): 636 ms | T1 Plasma ([1]; 3.13 × 10^-3 M): 69 ms | T2 Plasma ([1]; 3.13 × 10^-3 M): 61 ms | T1 Plasma ([1]; 3.91 × 10^-4 M): 405 ms | T1 Plasma ([1]; 6.25 × 10^-3 M): 39 ms | T2 Plasma ([1]; 6.25 × 10^-3 M): 31 ms | T1 Plasma ([1]; 7.81 × 10^-4 M): 240 ms | T1 Plasma ([1]; 9.77 × 10^-5 M): 877 ms | T1 Water ([2]; 1.56 × 10^-3 M): 163 ms | T2 Water ([2]; 1.56 × 10^-3 M): 155 ms | T1 Water ([2]; 1.95 × 10^-4 M): 1015 ms | T1 Water ([2]; 3.13 × 10^-3 M): 83 ms | T2 Water ([2]; 3.13 × 10^-3 M): 76 ms | T1 Water ([2]; 3.91 × 10^-4 M): 582 ms | T1 Water ([2]; 6.25 × 10^-3 M): 40 ms | T2 Water ([2]; 6.25 × 10^-3 M): 35 ms | T1 Water ([2]; 7.81 × 10^-4 M): 309 ms | T1, Skeletal Muscle [4]: 405 ms | change in spin lattice (T1) relaxation in the heart and liver ([4]; rabbits, 15 min, heart and liver): fails to produce any change
